From the supplement of paper PMC10307832

Experiments:
Assay in all cases: relative viability (nuclei count vs DMSO), 5 days (fraction); higher = more cells survive
NCI-H1734 = test system: NCI-H1734
In short: (§1)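 Relative viability was taken as the ratio of nuclei in treated wells to nuclei in vehicle wells. Lung cancer cell lines in 1536-well plates received compounds by pin tool one day after seeding, either one drug alone or a fixed anchor-drug dose plus five library-drug doses (not always all listed) in √10 steps. Nuclei were counted on 4× images after 5 days of treatment, and values are medians of duplicate plates.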

NCI-H2405 = test system: NCI-H2405
In short: as §1

NCI-H322M = test system: NCI-H322M
In short: as §1

H3255 = test system: H3255
In short: as §1

NCI-H2170 = test system: NCI-H2170
In short: as §1

UMC-11 = test system: UMC-11
In short: as §1

SW 900 = test system: SW 900
In short: as §1

NCI-H1793 = test system: NCI-H1793
In short: as §1

PC-14 = test system: PC-14
In short: as §1

NCI-H647 = test system: NCI-H647
In short: as §1

NCI-H1563 = test system: NCI-H1563
In short: as §1

NCI-H2023 = test system: NCI-H2023
In short: as §1

COR-L23 = test system: COR-L23
In short: as §1

NCI-H441 = test system: NCI-H441
In short: as §1

HCC-15 = test system: HCC-15
In short: as §1

LOU-NH91 = test system: LOU-NH91
In short: as §1

201T = test system: 201T
In short: as §1

NCI-H1650 = test system: NCI-H1650
In short: as §1

NCI-H3122 = test system: NCI-H3122
In short: as §1

NCI-H520 = test system: NCI-H520
In short: as §1

NCI-H2347 = test system: NCI-H2347
In short: as §1

EPLC-272H = test system: EPLC-272H
In short: as §1

CCN(CC)CCCCNc1ncc2cc(-c3cc(OC)cc(OC)c3)c(NC(=O)NC(C)(C)C)nc2n1 + COc1cc2c(Oc3ccc(NC(=O)C4(C(=O)Nc5ccc(F)cc5)CC4)cc3F)ccnc2cc1OCCCN1CCOCC1 [Foretinib] (partner 0.25 µM)
relative viability (NCI-H1734; first compound 0.01 µM): 0.863 | relative viability (NCI-H1734; first compound 0.03162 µM): 0.828 | relative viability (NCI-H1734; first compound 0.1 µM): 0.83 | relative viability (NCI-H1734; first compound 0.3162 µM): 0.943 | relative viability (NCI-H1734; first compound 1 µM): 0.694 | relative viability (NCI-H2405; first compound 0.01 µM): 1.05 | relative viability (NCI-H2405; first compound 0.03162 µM): 1.05 | relative viability (NCI-H2405; first compound 0.1 µM): 1.03 | relative viability (NCI-H2405; first compound 0.3162 µM): 1.07 | relative viability (NCI-H2405; first compound 1 µM): 1.04 | relative viability (NCI-H322M; first compound 0.01 µM): 0.991 | relative viability (NCI-H322M; first compound 0.03162 µM): 0.946 | relative viability (NCI-H322M; first compound 0.1 µM): 1.08 | relative viability (NCI-H322M; first compound 0.3162 µM): 1.01 | relative viability (NCI-H322M; first compound 1 µM): 0.966 | relative viability (H3255; first compound 0.01 µM): 0.898 | relative viability (H3255; first compound 0.03162 µM): 0.915 | relative viability (H3255; first compound 0.1 µM): 1.04 | relative viability (H3255; first compound 0.3162 µM): 0.943 | relative viability (H3255; first compound 1 µM): 0.85 | relative viability (NCI-H2170; first compound 0.01 µM): 0.929 | relative viability (NCI-H2170; first compound 0.03162 µM): 1.05 | relative viability (NCI-H2170; first compound 0.1 µM): 0.961 | relative viability (NCI-H2170; first compound 0.3162 µM): 1.08 | relative viability (NCI-H2170; first compound 1 µM): 0.999 | relative viability (UMC-11; first compound 0.01 µM): 0.952 | relative viability (UMC-11; first compound 0.03162 µM): 1.02 | relative viability (UMC-11; first compound 0.1 µM): 1.14 | relative viability (UMC-11; first compound 0.3162 µM): 1.19 | relative viability (UMC-11; first compound 1 µM): 1.02 | relative viability (SW 900; first compound 0.01 µM): 0.891 | relative viability (SW 900; first compound 0.03162 µM): 0.733 | relative viability (SW 900; first compound 0.3162 µM): 0.745 | relative viability (SW 900; first compound 1 µM): 0.557 | relative viability (NCI-H1793; first compound 0.01 µM): 0.734 | relative viability (NCI-H1793; first compound 0.03162 µM): 0.759 | relative viability (NCI-H1793; first compound 0.1 µM): 0.716 | relative viability (NCI-H1793; first compound 0.3162 µM): 0.676 | relative viability (NCI-H1793; first compound 1 µM): 0.403 | relative viability (PC-14; first compound 0.01 µM): 0.976 | relative viability (PC-14; first compound 0.03162 µM): 0.976 | relative viability (PC-14; first compound 0.1 µM): 1.08 | relative viability (PC-14; first compound 0.3162 µM): 1.07 | relative viability (PC-14; first compound 1 µM): 0.885 | relative viability (NCI-H647; first compound 0.01 µM): 1.15 | relative viability (NCI-H647; first compound 0.03162 µM): 1.39 | relative viability (NCI-H647; first compound 0.1 µM): 1.43 | relative viability (NCI-H647; first compound 0.3162 µM): 1.55 | relative viability (NCI-H647; first compound 1 µM): 1.08 | relative viability (NCI-H1563; first compound 0.01 µM): 0.921 | relative viability (NCI-H1563; first compound 0.03162 µM): 0.896 | relative viability (NCI-H1563; first compound 0.1 µM): 1.03 | relative viability (NCI-H1563; first compound 0.3162 µM): 0.907 | relative viability (NCI-H1563; first compound 1 µM): 0.748 | relative viability (NCI-H2023; first compound 0.01 µM): 0.954 | relative viability (NCI-H2023; first compound 0.03162 µM): 0.961 | relative viability (NCI-H2023; first compound 0.1 µM): 0.864 | relative viability (NCI-H2023; first compound 0.3162 µM): 0.853 | relative viability (NCI-H2023; first compound 1 µM): 0.758 | relative viability (COR-L23; first compound 0.01 µM): 1.11 | relative viability (COR-L23; first compound 0.03162 µM): 0.981 | relative viability (COR-L23; first compound 0.1 µM): 1.14 | relative viability (COR-L23; first compound 0.3162 µM): 1.04 | relative viability (COR-L23; first compound 1 µM): 1.05 | relative viability (NCI-H441; first compound 0.01 µM): 1.02 | relative viability (NCI-H441; first compound 0.03162 µM): 1.19 | relative viability (NCI-H441; first compound 0.1 µM): 1.04 | relative viability (NCI-H441; first compound 0.3162 µM): 1.04 | relative viability (NCI-H441; first compound 1 µM): 0.918 | relative viability (HCC-15; first compound 0.01 µM): 1.04 | relative viability (HCC-15; first compound 0.03162 µM): 1.19 | relative viability (HCC-15; first compound 0.1 µM): 1.03 | relative viability (HCC-15; first compound 0.3162 µM): 1.1 | relative viability (HCC-15; first compound 1 µM): 0.989 | relative viability (LOU-NH91; first compound 0.01 µM): 0.927 | relative viability (LOU-NH91; first compound 0.03162 µM): 0.916 | relative viability (LOU-NH91; first compound 0.1 µM): 0.959 | relative viability (LOU-NH91; first compound 0.3162 µM): 0.977 | relative viability (LOU-NH91; first compound 1 µM): 0.912 | relative viability (201T; first compound 0.03162 µM): 1.06 | relative viability (201T; first compound 0.1 µM): 1.2 | relative viability (201T; first compound 0.3162 µM): 1.05 | relative viability (201T; first compound 1 µM): 1.03 | relative viability (NCI-H1650; first compound 0.01 µM): 1.26 | relative viability (NCI-H1650; first compound 0.03162 µM): 1.11 | relative viability (NCI-H1650; first compound 0.1 µM): 1.1 | relative viability (NCI-H1650; first compound 0.3162 µM): 1.2 | relative viability (NCI-H1650; first compound 1 µM): 1.12 | relative viability (NCI-H3122; first compound 0.01 µM): 0.967 | relative viability (NCI-H3122; first compound 0.03162 µM): 0.927 | relative viability (NCI-H3122; first compound 0.1 µM): 1.08 | relative viability (NCI-H3122; first compound 0.3162 µM): 1.05 | relative viability (NCI-H3122; first compound 1 µM): 1.02 | relative viability (NCI-H520; first compound 0.01 µM): 0.677 | relative viability (NCI-H520; first compound 0.03162 µM): 0.834 | relative viability (NCI-H520; first compound 0.1 µM): 1.15 | relative viability (NCI-H520; first compound 0.3162 µM): 0.543 | relative viability (NCI-H520; first compound 1 µM): 0.326 | relative viability (NCI-H2347; first compound 0.01 µM): 0.744 | relative viability (NCI-H2347; first compound 0.03162 µM): 0.85 | relative viability (NCI-H2347; first compound 0.1 µM): 1.4 | relative viability (NCI-H2347; first compound 0.3162 µM): 1.12 | relative viability (NCI-H2347; first compound 1 µM): 0.766 | relative viability (EPLC-272H; first compound 0.01 µM): 0.63 | relative viability (EPLC-272H; first compound 0.03162 µM): 0.877 | relative viability (EPLC-272H; first compound 0.1 µM): 0.693 | relative viability (EPLC-272H; first compound 0.3162 µM): 0.741 | relative viability (EPLC-272H; first compound 1 µM): 0.644
